Data: patent US20080274892A1, “Novel Haloalkylsulfonanilide Derivative, Herbicide, and Method of Use Thereof” (priority 2005, published 2008)

Experiments:
[1] = tested on: barnyard glass; assay: Test Example 2: herbicidal efficacy on rice paddy weeds post-emergence; type: in vivo, Echinochloa crus-galli; settings: post-emergence, one leaf stage, 21 days after treatment
How it was run: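 Plastic pots of 75 cm^2 were filled with clay loam soil and sown with barnyard glass and bulrush seeds, then topped with 75 cm^3 soil containing false pimpernel seeds. The pots were flooded to 5 cm water depth and held in a hot house. Twenty-one days after treatment, herbicidal efficacy was graded against an untreated control.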

[2] = tested on: transplanted paddy rice plant and Bulrush; assay: Test Example 5: selectivity between transplanted paddy rice plant and weeds; type: in vivo; settings: (highest dosage with no phytotoxicity to paddy rice)/(lowest dosage with effective level 4 on Bulrush); rice 3000-100 g/ha, Bulrush 300-10 g/ha; 21 days
How it was run: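 Transplanted paddy rice was treated at 3000, 1000, 300 and 100 g/ha active ingredient for phytotoxicity, and post-emergence bulrush at 300, 100, 30 and 10 g/ha. Plants were kept in a hothouse for 21 days. Growth inhibition versus untreated control was scored 0–4 (0%, 1–39%, 40–69%, 70–89%, 90–100%).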

[3] = tested on: false pimpernel; assay: Test Example 1: herbicidal efficacy on rice paddy weeds pre-emergence; type: in vivo, Lindernia pyxidaria; settings: 21 days
[4] = tested on: bulrush; assay: as above; type: in vivo, Scirpus juncoides; settings: 21 days
[5] = tested on: bulrush; assay: Test Example 2: herbicidal efficacy on rice paddy weeds post-emergence; type: in vivo, Scirpus juncoides; settings: post-emergence, one leaf stage, 21 days after treatment
[6] = tested on: paddy rice plant (cultivar: Nihonbare); assay: Test Example 3: phytotoxicity test for transplanted paddy rice plant; type: in vivo; settings: transplanted rice, 21 days after treatment
How it was run: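 Clay loam soil was placed in a 75 cm^2 plastic pot and flooded to a water depth of 5 cm. Two Nihonbare paddy rice plants at the two-leaf stage were transplanted 1 cm deep and grown in a hot house. After treatment, pots stayed in the hot house for 21 days, and phytotoxicity was then graded against an untreated control.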

[7] = tested on: false pimpernel; assay: Test Example 2: herbicidal efficacy on rice paddy weeds post-emergence; type: in vivo, Lindernia pyxidaria; settings: post-emergence, one leaf stage, 21 days after treatment
[8] = tested on: bulrush; assay: Test Example 4: low dosage test for rice paddy weeds; type: in vivo, Scirpus juncoides; settings: 300 g/ha as an active ingredient; plants treated at the one leaf stage; 21 days after treatment; vs untreated control
How it was run: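 Bulrush sown in clay loam pots, flooded to 5 cm water in a hot house, treated at the one-leaf stage with formulated compound at 300 g/ha. Efficacy scored 0–4 against untreated control 21 days after treatment (4 = 90–100%, 0 = 0% inhibition).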

[9] = dosage 1000 g/ha, treated 5 days after transplantation

Structure (SMILES) | Burnyard grass post (herbicidal efficacy grade) ([1]; dosage 1000 g/ha) | Selective Index [2] | False pimpernel pre (herbicidal efficacy grade) ([3]; dosage 1000 g/ha) | Bulrush pre (herbicidal efficacy grade) ([4]; dosage 1000 g/ha) | Bulrush post (herbicidal efficacy grade) ([5]; dosage 1000 g/ha) | Phytotoxicity to paddy rice [6, 9] | False pimpernel post (herbicidal efficacy grade) ([7]; dosage 1000 g/ha) | Herbicide effect to Bulrush [8] | Burnyard grass post (herbicidal efficacy grade) ([1]; dosage 300 g/ha) | False pimpernel pre (herbicidal efficacy grade) ([3]; dosage 300 g/ha) | Bulrush pre (herbicidal efficacy grade) ([4]; dosage 300 g/ha) | Bulrush post (herbicidal efficacy grade) ([5]; dosage 300 g/ha) | Phytotoxicity to paddy rice ([6]; dosage 300 g/ha) | False pimpernel post (herbicidal efficacy grade) ([7]; dosage 300 g/ha)
CCCCOC(=O)N(c1ccccc1CN1CC(C)(C2CC2)OC1=O)S(=O)(=O)C(F)(F)F (racemic) [1-113] | 4 (90%-100% of herbicidal efficacy or phytotoxicity) | 30 | 4 (90%-100% of herbicidal efficacy or phytotoxicity) | 4 (90%-100% of herbicidal efficacy or phytotoxicity) | 4 (90%-100% of herbicidal efficacy or phytotoxicity) | 1 (1%-39% of herbicidal efficacy or phytotoxicity) | 4 (90%-100% of herbicidal efficacy or phytotoxicity) | 4 (90%-100% of herbicidal efficacy or phytotoxicity) | – | – | – | – | – | –
CCOC(=O)N(c1ccccc1CN1CC(C)(C)OC1=O)S(=O)(=O)C(F)(F)F [1-80] | 4 (90%-100% of herbicidal efficacy or phytotoxicity) | 30 | 4 (90%-100% of herbicidal efficacy or phytotoxicity) | 4 (90%-100% of herbicidal efficacy or phytotoxicity) | 4 (90%-100% of herbicidal efficacy or phytotoxicity) | 2 (40%-69% of herbicidal efficacy or phytotoxicity) | 4 (90%-100% of herbicidal efficacy or phytotoxicity) | 4 (90%-100% of herbicidal efficacy or phytotoxicity) | – | – | – | – | – | –
CCCOC(=O)N(c1ccccc1CN1CC(C)(CC)OC1=O)S(=O)(=O)C(F)(F)F (centres unmarked) [1-90] | 4 (90%-100% of herbicidal efficacy or phytotoxicity) | 30 | 4 (90%-100% of herbicidal efficacy or phytotoxicity) | 4 (90%-100% of herbicidal efficacy or phytotoxicity) | 4 (90%-100% of herbicidal efficacy or phytotoxicity) | 3 (70%-89% of herbicidal efficacy or phytotoxicity) | 4 (90%-100% of herbicidal efficacy or phytotoxicity) | 4 (90%-100% of herbicidal efficacy or phytotoxicity) | – | – | – | – | – | –
CC(C)COC(=O)N(c1ccccc1CN1CC(C)(C2CC2)OC1=O)S(=O)(=O)C(F)(F)F (centres unmarked) [1-72] | 4 (90%-100% of herbicidal efficacy or phytotoxicity) | 10 | 4 (90%-100% of herbicidal efficacy or phytotoxicity) | 4 (90%-100% of herbicidal efficacy or phytotoxicity) | 4 (90%-100% of herbicidal efficacy or phytotoxicity) | 1 (1%-39% of herbicidal efficacy or phytotoxicity) | 4 (90%-100% of herbicidal efficacy or phytotoxicity) | 4 (90%-100% of herbicidal efficacy or phytotoxicity) | – | – | – | – | – | –
CCC1(C)CN(Cc2ccccc2NS(=O)(=O)C(F)(F)F)C(=O)O1 (racemic) [1-59] | – | 3.3 | – | – | – | – | – | 4 (90%-100% of herbicidal efficacy or phytotoxicity) | 3 (70%-89% of herbicidal efficacy or phytotoxicity) | 4 (90%-100% of herbicidal efficacy or phytotoxicity) | 4 (90%-100% of herbicidal efficacy or phytotoxicity) | 4 (90%-100% of herbicidal efficacy or phytotoxicity) | 3 (70%-89% of herbicidal efficacy or phytotoxicity) | 4 (90%-100% of herbicidal efficacy or phytotoxicity)
C=CCOC(=O)N(c1ccccc1CN1CC(C)(C)OC1=O)S(=O)(=O)C(F)(F)F [1-82] | 4 (90%-100% of herbicidal efficacy or phytotoxicity) | ≧30 | 4 (90%-100% of herbicidal efficacy or phytotoxicity) | 4 (90%-100% of herbicidal efficacy or phytotoxicity) | 4 (90%-100% of herbicidal efficacy or phytotoxicity) | 2 (40%-69% of herbicidal efficacy or phytotoxicity) | 4 (90%-100% of herbicidal efficacy or phytotoxicity) | 4 (90%-100% of herbicidal efficacy or phytotoxicity) | – | – | – | – | – | –
CC(C)COC(=O)N(c1ccccc1CN1CC(C)(C(C)C)OC1=O)S(=O)(=O)C(F)(F)F (racemic) [1-102] | 4 (90%-100% of herbicidal efficacy or phytotoxicity) | 10 | 4 (90%-100% of herbicidal efficacy or phytotoxicity) | 4 (90%-100% of herbicidal efficacy or phytotoxicity) | 4 (90%-100% of herbicidal efficacy or phytotoxicity) | 1 (1%-39% of herbicidal efficacy or phytotoxicity) | 4 (90%-100% of herbicidal efficacy or phytotoxicity) | 4 (90%-100% of herbicidal efficacy or phytotoxicity) | – | – | – | – | – | –
CCC1(CC)CN(Cc2ccccc2NS(=O)(=O)C(F)(F)F)C(=O)O1 [1-61] | 4 (90%-100% of herbicidal efficacy or phytotoxicity) | 3 | 4 (90%-100% of herbicidal efficacy or phytotoxicity) | 4 (90%-100% of herbicidal efficacy or phytotoxicity) | 4 (90%-100% of herbicidal efficacy or phytotoxicity) | 1 (1%-39% of herbicidal efficacy or phytotoxicity) | 4 (90%-100% of herbicidal efficacy or phytotoxicity) | 4 (90%-100% of herbicidal efficacy or phytotoxicity) | – | – | – | – | – | –
CC(C)COC(=O)N(c1ccccc1CN1CC(C)(C)OC1=O)S(=O)(=O)C(F)(F)F [1-44] | 4 (90%-100% of herbicidal efficacy or phytotoxicity) | 30 | 4 (90%-100% of herbicidal efficacy or phytotoxicity) | 4 (90%-100% of herbicidal efficacy or phytotoxicity) | 4 (90%-100% of herbicidal efficacy or phytotoxicity) | 2 (40%-69% of herbicidal efficacy or phytotoxicity) | 4 (90%-100% of herbicidal efficacy or phytotoxicity) | 4 (90%-100% of herbicidal efficacy or phytotoxicity) | – | – | – | – | – | –
CC1(C)CN(Cc2ccccc2N(C(=O)Oc2ccccc2)S(=O)(=O)C(F)(F)F)C(=O)O1 [1-85] | 4 (90%-100% of herbicidal efficacy or phytotoxicity) | 10 | 4 (90%-100% of herbicidal efficacy or phytotoxicity) | 4 (90%-100% of herbicidal efficacy or phytotoxicity) | 4 (90%-100% of herbicidal efficacy or phytotoxicity) | 2 (40%-69% of herbicidal efficacy or phytotoxicity) | 4 (90%-100% of herbicidal efficacy or phytotoxicity) | 4 (90%-100% of herbicidal efficacy or phytotoxicity) | – | – | – | – | – | –
